Results: patent US8278301B2, “2-alkylbenzoxazole carboxamides as 5HT3 modulators” (Albany Molecular Research, Inc., priority 2006, dated 2012)

Experiments:
mouse 5-HT3 receptor = biological target: T1, mouse 5-HT3 receptor (Mus musculus, UniProt P23979); assay: Compound affinity for the mouse 5-HT3 receptor (Assay C), [3H]-GR65630 radioligand binding, Novoscreen; settings: Assay C; single concentration 100 nM, in duplicate; [3H]-GR65630; read-out: Mouse % Inhibition @ 100 nM
T1 construct: host or cells: mouse neuroblastoma cells (N1E-155 as printed)
T1 sequence (P23979 24-489): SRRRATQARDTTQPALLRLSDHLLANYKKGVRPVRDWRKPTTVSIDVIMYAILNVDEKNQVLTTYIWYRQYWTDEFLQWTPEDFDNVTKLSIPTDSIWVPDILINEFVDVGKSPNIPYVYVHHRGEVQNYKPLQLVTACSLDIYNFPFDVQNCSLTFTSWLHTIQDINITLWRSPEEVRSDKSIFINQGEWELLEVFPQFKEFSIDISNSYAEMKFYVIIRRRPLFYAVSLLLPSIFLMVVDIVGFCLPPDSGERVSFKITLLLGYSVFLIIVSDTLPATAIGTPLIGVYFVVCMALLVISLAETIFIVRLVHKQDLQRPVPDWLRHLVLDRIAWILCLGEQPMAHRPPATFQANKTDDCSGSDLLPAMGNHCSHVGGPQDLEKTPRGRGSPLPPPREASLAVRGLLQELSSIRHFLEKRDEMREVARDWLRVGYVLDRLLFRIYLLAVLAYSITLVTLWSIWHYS
Protocol: Compound Affinity for the Mouse 5-HT3Receptor (Assay C)
Compounds were tested by Novoscreen Biosciences Corporation, 7170 Standard Drive, Hanover, Md. in a radioligand binding assay using the mouse 5-HT3 receptor derived from mouse neuroblastoma cells and [^3H]-GR65630 (ligand). The non-specific binding determinant was MDL 72222. Compounds were tested at a single concentration of 100 nM in duplicate. Percent inhibition is reported. In order to evaluate the relative affinity of the various compounds for the 5-HT3 receptor, N1E-155 cell lines were developed to express the target protein. For binding, these cells were homogenized, centrifuged and washed with buffer (20 mM HEPES, 150 mM NaCl, pH 7.4) then suspended in 0.5 mL of buffer and [^3H]-GR65630 added at a concentration of 3.5×10^−10 M. An initial single concentration of 10^−7 M of the test compound was then added. Incubation was carried out at room temperature for 60 minutes at 25° C. then was terminated by rapid removal of the incubation medium. Radioactivity was assessed using liquid scintillation spectrophotometry after exposure to scintillation cocktail for at least three hours. […] Ki values were then calculated from the Cheng-Prusoff equation. In all of the above binding studies the non-specific determinant was MDL-72222 (1.0 μM).
(§1) In the table below, the assay in which the data were obtained is shown (as A, B. C, or D) along with the data.

5-HT3 receptors = biological target: T2, 5-HT3 receptors (Mus musculus, UniProt P23979); assay: Bezold-Jarisch assay in vivo: inhibition of serotonin induced bradycardia; settings: 30 mg/kg orally, 60 min before 5-HT 0.5 mg/kg IV, pentobarbital-anesthetized
T2 construct: from tissue; host or cells: whole animal, CD-1(Crl.) mice
T2 sequence (P23979 24-489): T1 sequence (P23979 24-489)
Protocol: Bezold-Jarisch Assay in vivo. […] Arch. Int. Pharmacodyn. 277: 235-252, 1985]. Test substances and vehicle [2% Tween 80] were each administered orally (30 mg/kg) to a group of 5 male or female CD-1(Crl.) mice each weighing 24±2 g. A dosing volume of 10 mL/kg was used. Sixty minutes later, 5-HT (0.5 mg/kg IV)-induced bradycardia was recorded in pentobarbital (80 mg/kg IP, given 10 minutes before 5-HT)-anesthetized animals.

human 5-HT3 receptor = biological target: T3, human 5-HT3 receptor (Homo sapiens, UniProt P46098); assay: Compound affinity for the human 5-HT3 receptor (Assay B), SPA radioligand binding with [9-methyl-3H]BRL-43694; design: purchased Perkin Elmer
T3 sequence (P46098 24-478): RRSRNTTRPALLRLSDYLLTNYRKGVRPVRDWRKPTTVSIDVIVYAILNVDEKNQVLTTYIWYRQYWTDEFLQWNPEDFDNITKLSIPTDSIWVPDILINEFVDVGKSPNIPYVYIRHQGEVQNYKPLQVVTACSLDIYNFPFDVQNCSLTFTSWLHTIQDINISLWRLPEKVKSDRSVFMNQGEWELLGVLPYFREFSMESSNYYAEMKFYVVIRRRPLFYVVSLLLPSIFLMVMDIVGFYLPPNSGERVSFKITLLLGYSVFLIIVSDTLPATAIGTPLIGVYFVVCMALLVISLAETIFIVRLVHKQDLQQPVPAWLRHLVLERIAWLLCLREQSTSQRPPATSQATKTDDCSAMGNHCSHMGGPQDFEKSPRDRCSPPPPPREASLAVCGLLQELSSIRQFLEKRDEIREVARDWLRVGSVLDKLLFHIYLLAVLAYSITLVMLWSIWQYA
Protocol: Compound Affinity for the Human 5-HT3 Receptor (Assay B)
The relative affinity of the various compounds for the human 5-HT3 receptor was measured in a radioligand binding assay, using a scintillation proximity assay (SPA) format. Test compounds were dissolved to 10 mM in 100% DMSO, then serially diluted at 10× assay concentrations in 100% DMSO in 96-well polypropylene plates and further diluted to 4× assay concentrations with the assay buffer. Samples were incubated in 50 mM Tris-HCl, pH 7.5, 3 mM MgCl2, 1 mM EDTA and 10% DMSO with 10 nM [9-methyl-3H]BRL-43694 (Perkin Elmer), 3 μg of human 5-HT3 receptor membranes (Perkin Elmer) and 0.5 mg/mL SPA beads (WGA PVT, Amersham Biosciences) in a final volume of 0.2 mL. Binding reactions were set up in wells of PicoPlates-96 (Perkin Elmer) by adding consecutively 50 μL of each competing compound or buffer, SPA beads, the radioligand and 5-HT3 receptor membranes. After 60-min incubation at room temperature on a Nutator mixer, plates were centrifuged for 15 min at 1,500 rpm, followed by incubation in the dark for 30 min. Radioactivity was counted in the TopCount microplate counter (Perkin Elmer) for 5 min. Total binding control contained buffer only; nonspecific binding was determined in the presence of 30 μM MDL-72222. Specific binding was determined by subtracting nonspecific binding from total binding. All experiments were performed in duplicate using ten concentrations of a competing ligand, with ondansetron included as a control in every run. IC50 values were determined from specific binding data using XLfit4.1 curve fitting software from IDBS Ltd. Ki values were then calculated from the Cheng-Prusoff equation.
as §1

SMILES | inhibition at 0.1 µM (mouse 5-HT3 receptor) [%] | inhibition of 5-HT-induced bradycardia (5-HT3 receptors) [%] | Ki (human 5-HT3 receptor) [nM]
CN1[C@@H]2CCC[C@H]1C[C@@H](NC(=O)c1cccc3oc(C4CC4)nc13)C2 [Example 1, Endo-N-(9-Methyl-9-azabicyclo[3.3.1]non-3-yl)-2-cyclopropylbenzoxazole-4-carboxamide] | 96.1 | 56 | 4.1
O=C(N[C@@H]1CN2CCC1CC2)c1cccc2oc(C3CC3)nc12 [Example 2, (S)—N-(1-Azabicyclo[2.2.2]oct-3-yl)-2-cyclopropylbenzoxazole-4-carboxamide] | 87.7 | 80 | 11
